From patent publication US20140030368A1, “COMPOSITION FOR PREVENTING OR TREATING A RESPIRATORY DISEASE CONTAINING A MIXED HERBAL EXTRACT OF CNIDIUM OFFICINALE ROOT AND POLYGONI CUSPIDATI ROOT” (WHANIN PHARMACEUTICAL CO., LTD., priority 2011, published 2014)

Columns and labels:
Type in all cases: in vivo, mice
IL-4 (interleukin-4) = test: T cell-derived cytokine from lung tissue, ovalbumin-induced asthma/COPD model
Experimental: In order to examine whether the extract of the present invention has the effect of inhibiting adaptive immune responses in an ovalbumin (OVA)-induced asthma/chronic obstructive pulmonary disease model, the content of T cell-derived cytokines isolated from lung tissue was measured (see Seong Gyu Jeon et al., J. Allergy Clin. Immunol., 2007, 119, 831-837).
Specifically, a mixture of 75 μg of ovalbumin (OVA, Sigma) and 2 mg of aluminum hydroxide (Alum, Sigma) was intraperitoneally administered twice (days 0 and 7) into BALB/c female mice (6 weeks old; provided from Animal Laboratory in Biotech Center, Pohang University of Science & Technology) to sensitize the mice. At 14, 15 and 21 days after the first sensitization date, 50 μg of ovalbumin in PBS was challenged into the nasal cavity to induce asthma and chronic obstructive pulmonary disease. […]
Then, the lung tissue was finely cut with a blade and incubated with 5 ml of 1× Trypsin-EDTA and 1000 units of chollagenase at 37° C. for 10 […]. […] Then, the supernatant was collected, and the amount of cytokine IL-4 (interleukin-4) in the supernatant was measured using an ELISA (enzyme-linked immunosorbent assay).

[1] = test system: inflammatory cells in pulmonary bronchoalveolar lavage; test: Inflammatory cells in pulmonary bronchoalveolar lavage, LPS-induced asthma/COPD model; details: ovalbumin + LPS model
Experimental: Whether the extract of the present invention has the effect of inhibiting pulmonary bronchial inflammation in an LPS (lipopolysaccharide)-induced asthma/chronic obstructive pulmonary disease model was examined (see You-Sun Kim et al., J. Immunol., 2010, 185, 5648-5655; Jun-Pyo Choi et al., Allergy, 2010, 65, 1322-1330).
Specifically, a mixture of 75 μg of ovalbumin and 10 μg of LPS (Sigma) was intranasally administered a total of four times (days 0, 1, 2 and 7) into C57BL/6 male mice (6 weeks old; provided from the Animal Laboratory in Biotech Center, Pohang University of Science & Technology) to sensitize the mice. At 14, 15, 21 and 22 days from the first sensitization date, 50 μg of ovalbumin in PBS was challenged into the nasal cavity to induce asthma and chronic obstructive pulmonary disease. In addition, at 14, 15, 21 and 22 days at which challenge was performed, each of 1.0% CMC, 100, 200 and 400 mg/10 ml/kg of the extract of Example 2, 1 mg/10 ml/Kg of the comparative drug dexamethason and 10 mg/10 ml/kg of the comparative drug montelukast was orally administered twice a day. At 48 hours after the final challenge, the mice were anesthetized by intraperitoneal administration of ketamine and xylazine, and the organ of the mice was exposed and a catheter was inserted therein. Then, the bronchoalveoli were laved with each of 0.8 and 0.7 ml of sterile phosphate buffered saline to obtain a bronchoalveolar lavage. The bronchoalveolar lavage was centrifuged at 4° C. at 1000 rpm for 5 minutes, and the supernatant was removed. 2 ml of 10% FBS-IMDM (fetal bovine serum—Iscove's Modified Dulbecco's Medium) was added to the cells which were then counted. Then, the cells were cytospun, plated on a slide, and Diff-Quick stained. At least 300 inflammatory cells were observed by the staining method and classified into eosinophils, macrophages, neutrophils and lymphocytes, and the cell numbers of the groups treated with dexamethason, montelukast and the extract of Example 2 were compared with the ratios of inflammatory cells in the pulmonary bronchoalveolar lavages of the negative control group and the positive control group, thereby evaluating the inhibitory effects of the test materials against airway inflammation.

IFN-γ (interferon-γ) = test: T cell-derived cytokine from lung tissue, LPS-induced asthma/COPD model (ELISA); details: ovalbumin + LPS model
Experimental: (§1) In order to examine whether the extract of the present invention has the effect of inhibiting T cell-derived cytokine isolated from the lung tissue of an LPS-derived asthma/chronic obstructive pulmonary disease model, the following test was performed.
(§2) Specifically, the LPS-induced asthma/chronic obstructive pulmonary disease model was prepared by treatment with each of the extract of Example 2 and a comparative drug in the same manner as described in Test Example 7-1. At 6 hours after the final challenge, the mice were anesthetized by intraperitoneal injection with ketamine and xylazine, and lung tissue was obtained from the mice. The lung tissue was cut finely with a blade and incubated with 5 ml of 1× Trypsin-EDTA and 1000 units of chollagenase at 37° C. for 10 minutes. Then, the tissue was passed through a 100 μm mesh to collect only immune cells. To stimulate T cells among the collected cells, 1×10^5 cells and anti-CD28 (1 μg/ml) were added to a 96-well plate coated with anti-CD3 (1 μg/ml) and were incubated in an incubator at 37° C. for 12 hours. Next, the supernatant was collected, and the amounts of the cytokines IL-17 (interleukin 17) and IFN-γ (interferon-γ) in the supernatant were measured using an ELISA (enzyme-linked immunosorbent assay).

IL-17 (interleukin 17) = test: as above; details: ovalbumin + LPS model
Experimental: as §1, §2

[2] = test system: anti-E. coli-EV-specific IgG1; test: Antigen-specific antibody in serum, E. coli-EV-induced model (ELISA)
Experimental: (§3) In order to examine whether the extract of the present invention has the ability to produce an antigen-specific antibody in an E. coli-EV-induced asthma/chronic obstructive pulmonary disease model, the E. coli-EV-induced asthma/chronic obstructive pulmonary disease model was prepared by treatment with each of the extract of Example 2 and a comparative drug in the same manner as described in Test Example 8-1. At 48 hours after the final challenge, the mice were anesthetized by intraperitoneal injection with ketamine and xylazine. Then, blood was collected from the heart using a 1 ml syringe, and serum was separated from the blood by centrifugation. Then, anti-E. coli-EV-specific IgG1 and IgG2a antibodies in the serum were measured according to an ELISA assay, and the results of the measurement are shown in Table 15 below.

[3] = test system: anti-E. coli-EV-specific IgG2a; test: as above
Experimental: as §3

**Q.** For `C[C@@H]1C[C@H]2[C@@H]3CCC4=CC(=O)C=C[C@]4(C)[C@@]3(F)[C@@H](O)C[C@]2(C)[C@@]1(O)C(=O)CO` [Dexamethason, dexamethason], which “IL-4 inhibition rate (%)” value (IL-4 (interleukin-4); 1 mg/kg b.i.d. oral) is on record?
**A.** 43.57%

**Q.** And the “Inhibition rate(%) Eosinophils” value ([1]; 1 mg/kg b.i.d.)?
**A.** 51.1%

**Q.** What about the “Inhibition rate(%) Macrophages” value ([1]; 1 mg/kg b.i.d.) of the same molecule?
**A.** 27.3%

**Q.** What about the “Inhibition rate(%) Total cells” value ([1]; 1 mg/kg b.i.d.) of the same molecule?
**A.** 40.4%

**Q.** And the “IFN-γ inhibition rate (%)” value (IFN-γ (interferon-γ); 1 mg/kg b.i.d.)?
**A.** 15.19%

**Q.** And the “IL-17 inhibition rate (%)” value (IL-17 (interleukin 17); 1 mg/kg b.i.d.)?
**A.** 23.12%

**Q.** What about the “Inhibition rate(%) IgG1” value ([2]; 1 mg/kg b.i.d.) of the same molecule?
**A.** 93.8%

**Q.** And the “Inhibition rate(%) IgG2a” value ([3]; 1 mg/kg b.i.d.)?
**A.** 55.7%

**Q.** For `CC(C)(O)c1ccccc1CC[C@@H](SCC1(CC(=O)O)CC1)c1cccc(/C=C/c2ccc3ccc(Cl)cc3n2)c1` [montelukast], which “IL-4 inhibition rate (%)” value (IL-4 (interleukin-4); 10 mg/kg b.i.d. oral) is on record?
**A.** 14.07%

**Q.** And the “Inhibition rate(%) Eosinophils” value ([1]; 10 mg/kg b.i.d.)?
**A.** 13.3%

**Q.** And the “Inhibition rate(%) Macrophages” value ([1]; 10 mg/kg b.i.d.)?
**A.** 8.2%

**Q.** What about the “Inhibition rate(%) Total cells” value ([1]; 10 mg/kg b.i.d.) of the same molecule?
**A.** 10.6%

**Q.** And the “IFN-γ inhibition rate (%)” value (IFN-γ (interferon-γ); 10 mg/kg b.i.d.)?
**A.** 14.50%

**Q.** What about the “IL-17 inhibition rate (%)” value (IL-17 (interleukin 17); 10 mg/kg b.i.d.) of the same molecule?
**A.** 68.42%

**Q.** And the “Inhibition rate(%) IgG1” value ([2]; 10 mg/kg b.i.d.)?
**A.** 59.7%

**Q.** And the “Inhibition rate(%) IgG2a” value ([3]; 10 mg/kg b.i.d.)?
**A.** 27.2%
